Measured values published in patent publication US10105372B2, “Methods of treating obesity using antioxidant inflammation modulators” (REATA PHARMACEUTICALS, INC., priority 2010, dated 2018).
Marks after values point to notes of the source that are not given here.

Assay: Phase 2 clinical trial, renal function, glycemic control, circulating endothelial cells
Assay type: in vivo, human
Source text: See U.S. Patent Application Publication 2009/0326063A1, which is incorporated by reference herein in its entirety. […] In this study, the protocol stipulated that patient weights were to be taken at baseline (D−1=1 day before initiation of dosing), Day 28, and Day 56. Weight data were available for all but one patient who started the study (a baseline weight was not recorded for this patient). In the remaining patients, 14 of 17 had lost weight at Day 28 (mean weight loss was 1.6% of baseline weight) and 17 of 17 had lost weight at Day 56 (mean weight loss was 3.7% of baseline, with a median of 3.1%). […] Prior to initiation of treatment, basic clinical observations (e.g., weight, blood pressure, height) were recorded along with baseline values for serum creatinine, blood urea nitrogen, serum phosphorus, serum uric acid, angiotensin II, fasting glucose, hemoglobin A1c, circulating endothelial cells (CECs), and iNOS-positive CECs. […] Reductions of more than 10% were also observed in BUN, serum creatinine, uric acid, and urinary albumin creatinine ratio.

[1] = Stratum 2, All Patients (n = 18), change

COC(=O)[C@]12CCC(C)(C)C[C@H]1[C@H]1C(=O)C=C3[C@@]4(C)C=C(C#N)C(=O)C(C)(C)[C@@H]4CC[C@@]3(C)[C@]1(C)CC2 [bardoxolone methyl]
CECs (Phase 2 study): Significant reductions | iNOS-positive CECs (Phase 2 study): Significant reductions | reduction in BUN (Phase 2 study): more than 10% | reduction in serum creatinine (Phase 2 study): more than 10% | reduction in uric acid (Phase 2 study): more than 10% | Patients with eGFR Increase (Stratum 2, All Patients (n = 18)): 89% | Blood Urea Nitrogen [1]: −14.9% | Circulating Endothelial Cells [1]: −34.8%^† | Creatinine Clearance [1]: +38.2%^† | Phosphorus [1]: −2.5% | Serum Creatinine [1]: −17.5%** | Uric Acid [1]: −13.3%^† | eGFR [1]: +24.1%*** | iNOS+ Circulating Endothelial Cells [1]: −65.8%* | Hemoglobin A1c (Stratum 2, patients with BL ≥ 7.0%, change): −0.1% | eGFR increase (after 28 days of treatment): approximately 10% | eGFR increase compared to baseline (after 56 days of treatment): more than 20%
